Results on four compounds are retold here after patent US20080069809A1, “Compositions and methods for the diagnosis and treatment of cancer” (priority 2006, published 2008).

Assay type in all cases: cell-based
The test system of assay [1] is KG1a. As to the kind of experiment: Differentiation (CD11b expression) in KG1a cells. Conditions: agent alone. As to the method: (§1) The myeloid leukemic cell lines HL60, NB60, NB4, U937, K562 and KG1a were all grown in RPMI 1640 medium (Life Technologies, Paisley, United Kingdom) supplemented with 10% v/v fetal calf serum (Sear Laboratories International Crawley, United Kingdom), 100 U/mL penicillin, and 100 μg/mL streptomycin (Sigma Aldrich, Poole, United Kingdom) at 37° C. and 5% v/v CO2. AML blasts were isolated from patient bone marrow aspirates and peripheral blood of eight patients at diagnosis or relapse. Patients were not receiving AML therapy at time of sampling. Blasts were isolated by Ficoll density centrifugation and were cultured in serum-free insulin transferrin selenium-positive (ITS+) medium (Life Technologies) containing 300 ng/mL stem cell factor (SCF) and 10 ng/mL interleukin 3 (IL3; R and D Systems, Abingdon, United Kingdom) and antibiotics. Blast purity ranged from 80% to 95%, as assessed by expression of CD34. Normal myeloblasts were isolated from cord blood or adult mobilized peripheral blood. Briefly, CD34^+ cells were indirectly selected from the mononuclear cell preparations using antibody-coated magnetic beads (Miltenyi Biotec, United Kingdom).
Cell differentiation was determined by staining of cells with anti-CD11b antibody as a general early marker of myeloid differentiation. In studies with HL60 cells, PEP005-treated and 20 nM phorbol myristate (PMA)-treated (Sigma Aldrich) cells were also assessed for their ability to phagocytose complement-coated yeast, a marker of a fully differentiated myeloid cell, as previously described (Toksoz et al, Leukemia Res 6:491-498, 1982). The ingestion of three or more yeasts was taken as a positive result. In normal cord blood or adult bone marrow myeloblasts, loss of CD34 was taken as a marker of differentiation. Isotype-matched controls were used and all antibodies were from DAKO (Cambridge, United Kingdom). […] Images were captured with a SPOT2 cameria (Diagnostic Instructions, Sterling Heights, Mich.) and analyzed using Image-Pro 4.0 software (Media Cybernetics, Silver Spring, Md.).

Assay [2] deals with HL60. As to the kind of experiment: Phagocytosis of complement-coated yeast by HL60 cells. Conditions: after 3 days of treatment, PMA 20 nM. As to the method: Cell differentiation was determined by staining of cells with anti-CD11b antibody as a general early marker of myeloid differentiation. In studies with HL60 cells, PEP005-treated and 20 nM phorbol myristate (PMA)-treated (Sigma Aldrich) cells were also assessed for their ability to phagocytose complement-coated yeast, a marker of a fully differentiated myeloid cell, as previously described (Toksoz et al, Leukemia Res 6:491-498, 1982). The ingestion of three or more yeasts was taken as a positive result. In normal cord blood or adult bone marrow myeloblasts, loss of CD34 was taken as a marker of differentiation. Isotype-matched controls were used and all antibodies were from DAKO (Cambridge, United Kingdom). […] Cells were also used to prepare cytospins, which were then differentially stained using a commercial May-Grünwald-Ginesa stain (Diff-Kwik; Gamidor, Abingdon, United Kingdom) to identify cells with a blast or differentiated or apoptotic morphology. Slides were examined using a Zeiss III RS brightfield microscope equipped with a 40×/0.75 water-immersion objective (Carl Zeiss, Jena, Germany). Images were captured with a SPOT2 cameria (Diagnostic Instructions, Sterling Heights, Mich.) and analyzed using Image-Pro 4.0 software (Media Cybernetics, Silver Spring, Md.).

The target in assay [3] is T1, PKC-δ (Homo sapiens, UniProt Q05655).
T1 construct: endogenous in cells; host or cells: HL60
T1 sequence (Q05655 whole entry): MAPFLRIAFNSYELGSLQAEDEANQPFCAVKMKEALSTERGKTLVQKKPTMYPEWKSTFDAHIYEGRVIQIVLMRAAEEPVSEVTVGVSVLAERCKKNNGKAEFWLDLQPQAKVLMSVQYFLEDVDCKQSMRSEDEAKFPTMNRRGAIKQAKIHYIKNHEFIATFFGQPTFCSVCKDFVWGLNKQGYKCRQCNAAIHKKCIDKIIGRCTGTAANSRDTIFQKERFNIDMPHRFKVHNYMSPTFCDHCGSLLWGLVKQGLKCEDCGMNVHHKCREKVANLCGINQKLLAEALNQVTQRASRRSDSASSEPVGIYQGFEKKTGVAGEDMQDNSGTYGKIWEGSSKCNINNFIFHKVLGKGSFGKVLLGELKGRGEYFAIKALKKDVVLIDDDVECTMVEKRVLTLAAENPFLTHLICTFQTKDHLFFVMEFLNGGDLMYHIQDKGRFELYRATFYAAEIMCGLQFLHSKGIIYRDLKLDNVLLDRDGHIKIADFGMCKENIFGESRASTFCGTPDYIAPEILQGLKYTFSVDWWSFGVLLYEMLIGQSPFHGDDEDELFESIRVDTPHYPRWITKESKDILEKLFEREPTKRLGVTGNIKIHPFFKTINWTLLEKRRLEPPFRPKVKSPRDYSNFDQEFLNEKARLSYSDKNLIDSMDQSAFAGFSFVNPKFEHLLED
As to the kind of experiment: PKC-δ activation by translocation (cell fractionation, Western blotting) in HL60 cells. Conditions: 20 nM PEP005 or 20 nM PMA, 10 minutes. As to the method:
PKC translocates from the soluble to the particulate fraction of cells when activated and this method was used to assess activation of PKC-δ by PEP005 and PMA. Briefly, cells were incubated for 10 minutes in medium alone or 20 nM PEP005 or 20 nM PMA, washed twice in phosphate buffered saline (PBS) and then lysed by homogenization in hypotonic lysis buffer in the absence of detergent. Lysis was checked using trypan blue uptake. Nuclei were isolated by centrifugation at 1000 g for 10 minutes. Centrifugation at 100,000 g for 45 minutes at 4° C. was used to isolate the cytosol (supernatant) and cell membrane (pellet) fractions. All were taken up in SDS sample buffer and analyzed for PKC-δ by Western blotting.
Background: Immunoblotting shows a protein as a band on a membrane.

For assay [4], the system named is HL60. As to the kind of experiment: Apoptosis (sub-G1 DNA by FACS, caspase-3 activation) in HL60 leukemic cells. Here is the method:
as §1, with “Blast purity ranged from 80% to 95%, as assessed by expression of CD34.” left out
To determine the effects of ingenol-3-angelate (PEP005), cells were incubated for up to 5 days with medium alone or PEP005 at a range of concentrations from 0.2 nM to 20 μM. PEP005 was extracted from Euphorbia peplus and supplied as a 98.5% pure preparation by Peplin Limited (Brisbane, Australia) as a dry pellet and was made up to a stock of […] in acetone on a weekly basis. Stocks were stored at 4° C. and diluted into medium when required. Final acetone concentration was never more than 0.1% v/v. Apoptosis and differentiation were assessed after 1 to 5 days.

Assay [5] concerns caspase-3. As to the kind of experiment: Caspase-3 phosphorylation in 32PO4-labeled HL60 cells. Conditions: 20 nM PEP005 and 5 μM rottlerin. Here is the method: To determine if PEP005 induced caspase-3 phosphorylation, HL60 cells were incubated with 1.5×10^7 Bq/mL ^32PO4 (Amersham Pharmacia) in phosphate-free medium for 3 hours prior to addition of 20 nM PEP005 or PEP005 and 5 μM rottlerin (Calbiochem, Nottingham, United Kingdom). Cells were then lysed and caspase-3 was immunoprecipitated with an anti-caspase-3 antibody (BD Pharmingen, Oxford, United Kingdom) or an irrelevant isotype-matched control antibody (DAKO) and the immunoprecipitate was isolated using an anti-mouse immunoglobulin G (IgG) antibody (DAKO) and protein G-coated magnetic beads (microbeads; Miltenyi Biotech). The isolate was taken up in SDS sample buffer and run on a 10% w/v SDS-polyacrylamide gel electrophoresis (PAGE) gel and the labeled proteins were visualized using a phosphorimager.

With `CC1=C(/C=C/C(C)=C/C=C/C(C)=C/C(=O)O)C(C)(C)CCC1` [ATRA, all-trans retinoic acid, reference compound], in assay [1], the differentiation response result was “did not respond”.

With `CCCCCCCCCCCCCC(=O)O[C@@H]1[C@@H](C)[C@@]2(O)[C@@H](C=C(CO)C[C@]3(O)C(=O)C(C)=C[C@@H]23)[C@@H]2C(C)(C)[C@]12OC(C)=O` [PMA, phorbol myristate, reference compound], in assay [2], the “differentiation to phagocytes (ability to phagocytose yeast)” value is “induced differentiation of HL60 cells toward phagocytes”. Moreover, the “site of initial PKC-δ translocation” value in assay [3] is “only to the cell membrane”. Moreover, the “apoptosis (caspase-3 activity)” value in assay [4] (after 3 days of treatment, PMA 20 nM) is given as “no increase in apoptosis”.

For the compound `CN(C)CCCn1cc(C2=C(c3c[nH]c4ccccc34)C(=O)NC2=O)c2ccccc21` [bisindolylmaleimide I, reference compound], the “inhibition of PEP005-induced apoptosis (caspase-3 activation)” value in assay [4] (20 nM PEP005 with 1 μM Bis-1 or 20 nM Go6976) was “inhibited”.

Take `CC(=O)c1c(O)c(C)c(O)c(Cc2c(O)c3c(c(C(=O)/C=C/c4ccccc4)c2O)OC(C)(C)C=C3)c1O` [rottlerin, reference compound]: the “effect on PEP005-induced caspase-3 phosphorylation” value in assay [5] was “ablated”.
